Tested on: CVD (CHD or stroke)
Test: WOSCOPS: SNP by pravastatin treatment interaction, logistic regression (synergy index), CVD endpoint
Format: in vivo, human
Conditions: for OR (synergy index), WOSCOPS, Prava vs Placebo: CVD endpoint, Caseonly; for OR (SNP x pravastatin treatment interaction): WOSCOPS pravastatin vs placebo
Description: CARE was a secondary prevention trial and WOSCOPS was a primary prevention trial.
The CHD endpoint was defined in the analyses herein of CARE as a composite endpoint of fatal CHD, definite non-fatal MI, or revascularization, and was defined in the analyses herein of WOSCOPS as a composite endpoint of death from CHD, nonfatal MI, or revascularization. In both the CARE and WOSCOPS analyses herein, the CVD endpoint was defined as a composite endpoint of CHD or stroke. […] Revascularization, which can include percutaneous transluminal coronary angioplasty (PTCA), stent placement, and coronary artery bypass graft (CABG), are medical interventions that indicate the presence of CHD.
Cohort and case-only study designs were used to identify SNPs associated with response to statin treatment.
For each SNP, a logistic regression model having treatment status as the dependent variable and SNP as the independent predictor variable was performed, with terms for age, sex and race included in the model as covariates. The anti-log of the regression coefficient corresponding to the SNP is an estimate of the synergy index (SI) (Davis et al., “Imputing gene-treatment interactions when the genotype distribution is unknown using case-only and putative placebo analyses-a new method for the Genetics of Hypertension Associated Treatment (GenHAT) study”, Statistics in Medicine 23: (2004), pages 2413-2427). The SI is a ratio of odds ratios: for example in the CARE and WOSCOPS studies, the SI represents the factor by which the odds-ratio of statin treatment, compared with placebo, among major homozygous individuals is multiplied by in order to obtain the odds-ratio of treatment vs. placebo among heterozygous individuals; and multiplied by a second time to obtain the odds-ratio of treatment vs. placebo in minor homozygous individuals. […] In a randomized clinical trial, genotype and treatment are independent by design.

CC[C@H](C)C(=O)O[C@H]1C[C@H](O)C=C2C=C[C@H](C)[C@H](CC[C@@H](O)C[C@@H](O)CC(=O)O)[C@H]21 [Pravastatin, pravastatin]
OR (synergy index), WOSCOPS, Prava vs Placebo (SNP rs304601 (A1 A, A2 G), rec model): 3.93
OR (synergy index), WOSCOPS, Prava vs Placebo (SNP rs988146 (A1 G, A2 A), add model): 0.80
OR (SNP x pravastatin treatment interaction) (SNP rs1241967, allele A1=T, model REC, Imputed): 0.5915
OR (SNP x pravastatin treatment interaction) (SNP rs1247340, allele A1=C, model ADD, Imputed): 1.51
OR (SNP x pravastatin treatment interaction) (SNP rs1247340, allele A1=C, model DOM, Imputed): 1.767
OR (SNP x pravastatin treatment interaction) (SNP rs1247341, allele A1=C, model ADD, Imputed): 1.524
OR (SNP x pravastatin treatment interaction) (SNP rs1247341, allele A1=C, model DOM, Imputed): 1.795
OR (SNP x pravastatin treatment interaction) (SNP rs1247343, allele A1=C, model DOM, Imputed): 1.681
OR (SNP x pravastatin treatment interaction) (SNP rs1335721, allele A1=A, model REC, Imputed): 0.5999
OR (SNP x pravastatin treatment interaction) (SNP rs1336382, allele A1=T, model DOM, Imputed): 1.458
OR (SNP x pravastatin treatment interaction) (SNP rs1336383, allele A1=T, model DOM, Imputed): 1.458
OR (SNP x pravastatin treatment interaction) (SNP rs1336407, allele A1=T, model DOM, Imputed): 1.458
OR (SNP x pravastatin treatment interaction) (SNP rs1336409, allele A1=T, model DOM, Imputed): 1.458
OR (SNP x pravastatin treatment interaction) (SNP rs1336596, allele A1=A, model DOM, Imputed): 0.6728
OR (SNP x pravastatin treatment interaction) (SNP rs1355715, allele A1=T, model ADD, Imputed): 0.5755
OR (SNP x pravastatin treatment interaction) (SNP rs1363273, allele A1=C, model REC, Imputed): 0.5817
OR (SNP x pravastatin treatment interaction) (SNP rs1373601, allele A1=A, model DOM, Imputed): 0.5287
OR (SNP x pravastatin treatment interaction) (SNP rs1395748, allele A1=G, model DOM, Imputed): 0.6603
OR (SNP x pravastatin treatment interaction) (SNP rs1414865, allele A1=T, model DOM, Imputed): 1.433
OR (SNP x pravastatin treatment interaction) (SNP rs1414873, allele A1=A, model DOM, Imputed): 1.458
OR (SNP x pravastatin treatment interaction) (SNP rs1414876, allele A1=C, model DOM, Imputed): 1.458
OR (SNP x pravastatin treatment interaction) (SNP rs1424643, allele A1=G, model ADD, Imputed): 1.554
OR (SNP x pravastatin treatment interaction) (SNP rs1424643, allele A1=G, model DOM, Imputed): 1.592
OR (SNP x pravastatin treatment interaction) (SNP rs1424648, allele A1=T, model DOM, Imputed): 1.619
OR (synergy index), WOSCOPS, Prava vs Placebo (SNP rs1559557 (A1 G, A2 A), add model): 1.53
OR (synergy index), WOSCOPS, Prava vs Placebo (SNP rs1877527 (A1 G, A2 A), add model): 0.77
OR (synergy index), WOSCOPS, Prava vs Placebo (SNP rs2132241 (A1 A, A2 G), add model): 0.70
OR (synergy index), WOSCOPS, Prava vs Placebo (SNP rs2270588 (A1 G, A2 A), add model): 0.75
OR (synergy index), WOSCOPS, Prava vs Placebo (SNP rs9325191 (A1 A, A2 C), add model): 0.69
OR (synergy index), WOSCOPS, Prava vs Placebo (SNP rs9346951 (A1 A, A2 G), add model): 1.25
OR (synergy index), WOSCOPS, Prava vs Placebo (SNP rs10787944 (A1 G, A2 A), dom model): 1.45
OR (SNP x pravastatin treatment interaction) (SNP rs11959206, allele A1=A, model REC, Imputed): 0.5862
OR (SNP x pravastatin treatment interaction) (SNP rs12038613, allele A1=C, model REC, Imputed): 0.5999
OR (SNP x pravastatin treatment interaction) (SNP rs12151417, allele A1=T, model DOM, Imputed): 1.573
OR (SNP x pravastatin treatment interaction) (SNP rs12153185, allele A1=T, model DOM, Imputed): 0.6973
OR (SNP x pravastatin treatment interaction) (SNP rs12182651, allele A1=T, model DOM, Imputed): 2.24
OR (SNP x pravastatin treatment interaction) (SNP rs12235345, allele A1=C, model DOM, Imputed): 1.42
OR (SNP x pravastatin treatment interaction) (SNP rs12324786, allele A1=T, model REC, Imputed): 2.796
OR (SNP x pravastatin treatment interaction) (SNP rs12336958, allele A1=G, model DOM, Imputed): 1.46
OR (SNP x pravastatin treatment interaction) (SNP rs12407412, allele A1=C, model ADD, Imputed): 1.382
OR (SNP x pravastatin treatment interaction) (SNP rs12407412, allele A1=C, model DOM, Imputed): 1.401
OR (SNP x pravastatin treatment interaction) (SNP rs12418971, allele A1=C, model REC, Imputed): 1.699
OR (SNP x pravastatin treatment interaction) (SNP rs12420184, allele A1=G, model DOM, Imputed): 0.6518
OR (SNP x pravastatin treatment interaction) (SNP rs12433968, allele A1=T, model DOM, Imputed): 0.7213
OR (SNP x pravastatin treatment interaction) (SNP rs12445477, allele A1=A, model DOM, Imputed): 0.4063
OR (SNP x pravastatin treatment interaction) (SNP rs12447191, allele A1=T, model ADD, Genotyped): 0.6489
OR (SNP x pravastatin treatment interaction) (SNP rs12447191, allele A1=T, model DOM, Genotyped): 0.5081
OR (SNP x pravastatin treatment interaction) (SNP rs12465349, allele A1=A, model REC, Imputed): 1.587
OR (SNP x pravastatin treatment interaction) (SNP rs12509758, allele A1=C, model DOM, Imputed): 1.856
OR (SNP x pravastatin treatment interaction) (SNP rs12515472, allele A1=A, model DOM, Imputed): 1.531
OR (SNP x pravastatin treatment interaction) (SNP rs12548906, allele A1=G, model ADD, Imputed): 1.496
OR (SNP x pravastatin treatment interaction) (SNP rs12596240, allele A1=G, model DOM, Imputed): 0.6708
OR (SNP x pravastatin treatment interaction) (SNP rs12618781, allele A1=A, model DOM, Imputed): 0.5446
OR (SNP x pravastatin treatment interaction) (SNP rs12678600, allele A1=A, model DOM, Imputed): 0.6479
OR (SNP x pravastatin treatment interaction) (SNP rs12692229, allele A1=T, model ADD, Imputed): 1.315
OR (SNP x pravastatin treatment interaction) (SNP rs12713324, allele A1=T, model DOM, Imputed): 1.584
OR (SNP x pravastatin treatment interaction) (SNP rs12719415, allele A1=T, model DOM, Imputed): 0.6887
OR (SNP x pravastatin treatment interaction) (SNP rs12820589, allele A1=G, model ADD, Imputed): 1.758

From patent US10563263B2, “Genetic polymorphisms associated with statin response and cardiovascular diseases, methods of detection and uses thereof” (CELERA CORPORATION, priority 2010, dated 2020)
